Source: US20200062773A1, “4,4a,5,7-TETRAHYDRO-3H-FURO[3,4-b]PYRIDINYL COMPOUNDS” (Janssen Pharmaceutlca NV, priority 2016, published 2020)

Assays:
[1] = target: T1, BACE1 (Homo sapiens, UniProt P56817); assay: BACE1 biochemical FRET based assay; conditions: Method 1: recombinant BACE1 1 μg/ml, 120 min at room temperature, pH 5.0; for IC50: read-out: Biochemical FRET based assay pIC50 (converted)
T1 construct: recombinant BACE1 protein in a final concentration of 1 μg/ml
Source text: BACE1 Biochemical Fret Based Assay
(§1) This assay is a Fluorescence Resonance Energy Transfer Assay (FRET) based assay. The substrate for this assay is an APP derived 13 amino acids peptide that contains the ‘Swedish’ Lys-Met/Asn-Leu mutation of the amyloid precursor protein (APP) beta-site APP-cleaving enzyme cleavage site. This substrate also contains two fluorophores: (7-methoxycoumarin-4-yl) acetic acid (Mca) is a fluorescent donor with excitation wavelength at 320 nm and emission at 405 nm and 2,4-Dinitrophenyl (Dnp) is a proprietary quencher acceptor. […] Upon cleavage by BACE1, the fluorophore Mca is separated from the quenching group Dnp, restoring the full fluorescence yield of the donor. The increase in fluorescence is linearly related to the rate of proteolysis.
Briefly in a 384-well format recombinant BACE1 protein in a final concentration of 1 μg/ml is incubated for 120 minutes at room temperature with 10 μm substrate in incubation buffer (40 mM Citrate buffer pH 5.0, 0.04% PEG, 4% DMSO) in the absence or presence of compound. Next the amount of proteolysis is directly measured by fluorescence measurement at T=0 and T=120 (excitation at 320 nm and emission at 405 nm). Results are expressed in RFU (Relative Fluorescence Units), as difference between T120 and T0.
(§2) A best-fit curve is fitted by a minimum sum of squares method to the plot of % Controlmin versus compound concentration. From this an IC50 value (inhibitory concentration causing 50% inhibition of activity) can be obtained.

[2] = system: Abeta 1-42 produced and secreted into the medium of human neuroblastoma SKNBE2 cells; assay: Cellular αLisa assay in SKNBE2 cells; format: cell-based; conditions: human neuroblastoma SKNBE2 cells expressing hAPP695, 18 hours incubation; for IC50: Homo sapiens, SKNBE2, 18 h, read-out: Cellular αLisa assay in SKNBE2 cells Abeta 42 pIC50 (converted)
Method: Cellular αLisa Assay in SKNBE2 Cells
In two αLisa assays the levels of Abeta 1-42 produced and secreted into the medium of human neuroblastoma SKNBE2 cells are quantified. The assay is based on the human neuroblastoma SKNBE2 expressing the wild type Amyloid Precursor Protein (hAPP695). The compounds are diluted and added to these cells, incubated for 18 hours and then measurements of Abeta 1-42 are taken. Abeta 1-42 are measured by sandwich αLisa. αLisa is a sandwich assay using biotinylated antibody AbN/25 attached to streptavidin coated beads and antibody cAb42/26 conjugated acceptor beads for the detection of Abeta 1-42 respectively. In the presence of Abeta 1-42, the beads come into close proximity. The excitation of the donor beads provokes the release of singlet oxygen molecules that trigger a cascade of energy transfer in the acceptor beads, resulting in light emission. Light emission is measured after 1 hour incubation (excitation at […] and emission at 615 nm).
as §2

[3] = target: T2, BACE2 (Homo sapiens, UniProt Q9Y5Z0); assay: BACE2 biochemical FRET based assay; conditions: recombinant BACE2, 450 minutes at room temperature, pH 5.0; for IC50: read-out: Biochemical FRET based assay pIC50 (converted)
T2 construct: recombinant BACE2 protein in a final concentration of 0.4 μg/ml
T2 sequence (Q9Y5Z0 63-518): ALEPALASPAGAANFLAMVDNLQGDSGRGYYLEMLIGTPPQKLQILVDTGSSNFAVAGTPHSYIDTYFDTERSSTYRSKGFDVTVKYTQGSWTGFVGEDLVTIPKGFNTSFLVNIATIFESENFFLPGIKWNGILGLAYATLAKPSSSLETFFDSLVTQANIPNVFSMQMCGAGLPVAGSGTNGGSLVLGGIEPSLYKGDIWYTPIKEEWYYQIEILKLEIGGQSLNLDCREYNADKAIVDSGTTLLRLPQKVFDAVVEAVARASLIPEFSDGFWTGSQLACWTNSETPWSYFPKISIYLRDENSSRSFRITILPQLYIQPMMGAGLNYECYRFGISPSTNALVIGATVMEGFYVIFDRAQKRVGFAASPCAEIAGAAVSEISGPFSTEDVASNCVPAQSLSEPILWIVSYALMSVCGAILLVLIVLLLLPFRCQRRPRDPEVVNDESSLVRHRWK
Source text: BACE2 Biochemical FRET Based Assay
as §1, with “assay” for “assay is an APP derived 13 amino acids peptide that”, “the beta-site APP-cleaving enzyme,” for “BACE1,”
Briefly in a 384-well format recombinant BACE2 protein in a final concentration of 0.4 μg/ml is incubated for 450 minutes at room temperature with 10 μM substrate in incubation buffer (50 mM Citrate buffer pH 5.0, 0.05% PEG, no DMSO) in the absence or presence of compound. Next the amount of proteolysis is directly measured by fluorescence measurement at T=0 and T=450 (excitation at 320 nm and emission at 405 nm). Results are expressed in RFU (Relative Fluorescence Units), as difference between T450 and T0.
as §2

T1 sequence (P56817 46-501): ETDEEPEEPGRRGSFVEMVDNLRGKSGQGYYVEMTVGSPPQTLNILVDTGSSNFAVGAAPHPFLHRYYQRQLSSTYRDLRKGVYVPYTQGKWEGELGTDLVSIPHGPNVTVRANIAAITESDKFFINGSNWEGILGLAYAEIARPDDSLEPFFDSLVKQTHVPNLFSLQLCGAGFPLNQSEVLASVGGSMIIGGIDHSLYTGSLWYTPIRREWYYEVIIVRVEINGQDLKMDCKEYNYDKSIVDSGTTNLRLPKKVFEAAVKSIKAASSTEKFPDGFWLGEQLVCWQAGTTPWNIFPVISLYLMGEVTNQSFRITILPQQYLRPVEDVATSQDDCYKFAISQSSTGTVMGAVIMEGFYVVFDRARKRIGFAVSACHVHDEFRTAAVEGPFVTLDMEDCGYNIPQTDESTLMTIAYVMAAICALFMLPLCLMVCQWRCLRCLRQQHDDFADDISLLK

SMILES	Biochemical FRET based assay pIC50 [1]	Cellular αLisa assay in SKNBE2 cells Abeta 42 pIC50 [2]	Biochemical FRET based assay pIC50 [3]	IC50 [1] [nM]	IC50 [2] [nM]	IC50 [3] [nM]
C[C@@]1(C#N)C[C@@H]2[C@@H](C(F)(F)F)OC[C@]2(c2cc(NC(=O)c3ccc(F)cn3)ccc2F)N=C1N [2c]	8.73	8.32	8.3	–	–	–
COc1cnc(C(=O)Nc2ccc(F)c([C@@]34CO[C@@H](C)[C@@H]3C[C@@](C)(C#N)C(N)=N4)c2)cn1 [5c]	<5	<5.05	<5	–	–	–
C[C@]1(C#N)C[C@@H]2[C@@H](C(F)(F)F)OC[C@]2(c2cc(NC(=O)c3cnc(OCF)cn3)ccc2F)N=C1N [7e]	7.68	7.33	6.24	–	–	–
COc1cnc(C(=O)Nc2ccc(F)c([C@]34CO[C@H](C)[C@H]3C[C@](C)(S(C)(=O)=O)C(N)=N4)c2)cn1 (single isomer, unassigned) [13d]	<5	<5.05	<5	–	–	–
C[C@]1(C#N)C[C@@H]2[C@@H](C(F)(F)F)OC[C@]2(c2cc(NC(=O)c3ccc(C#N)cn3)ccc2F)N=C1N [3f]	8.33	8.1	6.88	–	–	–
CC1OCC2(c3cc(NC(=O)c4cnc(-n5cncn5)cn4)ccc3F)N=C(N)C(C)(C#N)CC12 (single isomer, unassigned) [15a]	–	8.19	–	7.41	–	158
C[C@H]1OC[C@]2(c3cc(NC(=O)c4ccc(F)cn4)ccc3F)N=C(N)[C@](C)(C#N)C[C@H]12 (single isomer, unassigned) [10b]	8.25	8.23	8.28	–	–	–
C[C@@]1(C#N)C[C@@H]2[C@@H](C(F)(F)F)OC[C@]2(c2cc(NC(=O)c3ncc(Cl)cn3)ccc2F)N=C1N [8c]	8.75	8.17	8.46	–	–	–
COc1cnc(C(=O)Nc2ccc(F)c([C@@]34CO[C@@H](C)[C@@H]3C[C@](C)(C#N)C(N)=N4)c2)cn1 [1a]	5.05	5.12	<5	–	–	–
C[C@H]1OC[C@]2(c3cc(NC(=O)c4cnc(OCF)cn4)ccc3F)N=C(N)[C@](C)(C#N)C[C@H]12 (single isomer, unassigned) [9b]	8.28	8.74	7.19	–	–	–
C[C@@]1(C#N)C[C@H]2[C@H](C(F)(F)F)OC[C@@]2(c2cc(NC(=O)c3ccc(C#N)cn3)ccc2F)N=C1N [3e]	5.84	5.34	<5	–	–	–
C[C@@]1(C#N)C[C@H]2[C@H](C(F)(F)F)OC[C@@]2(c2cc(NC(=O)c3cnc(OCF)cn3)ccc2F)N=C1N [7f]	5.74	5.43	<5	–	–	–
N#Cc1ccc(C(=O)Nc2ccc(F)c([C@@]34CO[C@@H](C(F)(F)F)[C@@H]3CCC(N)=N4)c2)nc1 [11b]	–	5.9	–	–	–	–
Cl.NC1=N[C@]2(c3cc(NC(=O)c4ccc(F)cn4)ccc3F)CO[C@@H](C(F)(F)F)[C@@H]2CC1 [12b]	5.27	5.45	–	–	–	–

The remaining lines, values ahead:

Biochemical FRET based assay pIC50 [1]	Cellular αLisa assay in SKNBE2 cells Abeta 42 pIC50 [2]	Biochemical FRET based assay pIC50 [3]	IC50 [1] [nM]	IC50 [2] [nM]	IC50 [3] [nM]	SMILES
–	–	–	10.5	19.5	708	CC(C)(F)[C@H]1OC[C@]2(c3cc(NC(=O)c4ccc(C#N)cn4)ccc3F)N=C(N)[C@@](C)(C#N)C[C@H]12 [21b]
–	7.81	–	5.5	–	44.7	CC1OCC2(c3cc(NC(=O)c4ccc(C#N)cn4)cc(F)c3F)N=C(N)C(C)(C#N)CC12 (single isomer, unassigned) [33b]
–	7.37	–	35.5	–	468	CC1OCC2(c3cc(NC(=O)c4ccc(C#N)cn4)cc(F)c3F)N=C(N)C(C)(C#N)CC12 (single isomer, unassigned) [33c]
–	6.11	–	741	–	> 10000	CC1OCC2(c3cc(NC(=O)c4ccc(OC(F)F)cn4)ccc3F)N=C(N)C(C)(C#N)CC12 (single isomer, unassigned) [35b]
–	–	–	1.91	1.78	–	Cc1cc(C#N)cnc1C(=O)Nc1ccc(F)c(C23COC(C(C)(F)F)C2CC(C)(C#N)C(N)=N3)c1 (stereo not shown) [compound 37]
–	–	–	0.955	3.8	–	CC1(C#N)CC2C(C(C)(F)F)OCC2(c2cc(NC(=O)c3cnc(OC(F)F)cn3)ccc2F)N=C1N (stereo not shown) [compound 38]
–	<5.05	–	8710	–	> 10000	CC1OCC2(c3cc(NC(=O)c4cnc(OCF)cn4)cc(F)c3F)N=C(N)C(C)(C#N)CC12 (single isomer, unassigned) [31b]
–	–	–	14.5	31.6	158	C[C@]1(C#N)C[C@@H]2[C@@H](CF)OC[C@]2(c2cc(NC(=O)c3ccc(C#N)cn3)ccc2F)N=C1N [24b]
–	–	–	2.82	6.31	36.3	C[C@@]1(C#N)C[C@@H]2[C@@H](C(F)F)OC[C@]2(c2cc(NC(=O)c3ccc(C#N)cn3)ccc2F)N=C1N [27a]
–	8.62	–	–	–	–	CC(C)(F)[C@H]1OC[C@]2(c3cc(NC(=O)c4ccc(C#N)cn4)ccc3F)N=C(N)[C@](C)(C#N)C[C@H]12 [21a]
–	–	–	1.58	2.14	21.4	CC(F)(F)[C@H]1OC[C@]2(c3cc(NC(=O)c4ccc(C#N)cn4)ccc3F)N=C(N)[C@](C)(C#N)C[C@H]12 [17a]
–	5.62	–	1550	–	> 10000	CC1OCC2(c3cc(NC(=O)c4cnc(-n5cncn5)cn4)ccc3F)N=C(N)C(C)(C#N)CC12 (single isomer, unassigned) [15b]
–	–	–	4.79	13.2	74.1	C[C@@]1(C#N)C[C@@H]2[C@@H](CF)OC[C@]2(c2cc(NC(=O)c3cnc(OCF)cn3)ccc2F)N=C1N [22a]
–	–	–	2.14	2.88	–	CC1(C#N)CC2C(CF)OCC2(c2cc(NC(=O)c3ccc(C#N)cn3)ccc2F)N=C1N (stereo not shown) [24a]
